# Test results reported in patent US20050074867A1, “Preservation of competent cells at ambient temperatures” (priority 2001, published 2005).
# Test system: Escherichia coli ATCC strain MM294 cells
# Test: Preservation survival of electrocompetent E. coli MM294 cells dried by foam formation (plate count)
# Type: cell-based
# Conditions: cells loaded with 10% MAG, preserved (dried) by foam formation; average of three independent experiments
# Protocol: (1) Preparation of fresh electrocompetent cells: Escherichia coli ATCC strain MM294 cells were grown under standard conditions in L-broth (growth medium for E. coli), at 37° C., with moderate aeration (shaking at 250 rpm). An isolated colony from a fresh streak was inoculated into 5 ml of L-broth and incubated overnight (preculture). The following morning, the preculture was subcultured (1% inoculum) in 100 ml of L-broth+glucose (0.05%-0.5%). The cells were incubated until OD550=0.5 (subculture). At this point, the cells were transferred into 250 ml of L-broth+glucose (0.05%-0.5%) and incubation continued until OD550=0.8. Two flasks with 250 ml of cells were prepared.
# When the culture OD550 reached 0.8 (cell density approx. 5×10^8 cfu/ml), the cells were harvested by centrifugation at 2,500 rpm (at room temperature) for 10 minutes. […] Bacterial counts were determined by diluting cells in PBS buffer and spread plating appropriate dilutions in duplicate on L-agar. The plates were incubated at 37° C. overnight and colonies were counted the following day. […]
# (5) Assaying the preserved E. coli cells: Dried samples were rehydrated at room temperature. […] Plates were incubated at 37° C. overnight and colonies were counted the following day. […]
compound,measurement,value
"COC1OC(CO)C(O)C(O)C1O (centres unmarked) [MAG, a-methyl-glucoside]",Preservation Yield Cfu/ml,1.1 × 10^10 Cfu/ml
same,Preservation yield %,53.5%
